In ChEMBL document CHEMBL1208747, “Derivatives of tetrahydroisoquinoline: synthesis and initial evaluation of novel non-peptide antagonists of the alpha(IIb)beta(3)-integrin” (Bioorg Med Chem Lett, 2010):

Legend:
[1] = Antagonist activity at FITC-tagged […] integrin in human platelet rich plasma
[2] = target: T1, Integrin alpha-IIb/beta-3 (Homo sapiens, UniProt P05106+P08514); assay: Antagonist activity at FITC-tagged […] integrin in human platelet rich plasma; format: functional, cell-free
[3] = target: T1, Integrin alpha-IIb/beta-3; assay: Antagonist activity at FITC-tagged alphaIIbbeta3 integrin in human platelet assessed as inhibition of FITC-fibrinogen binding on washed platelets

T1 sequence (P05106 27-788 limits assumed): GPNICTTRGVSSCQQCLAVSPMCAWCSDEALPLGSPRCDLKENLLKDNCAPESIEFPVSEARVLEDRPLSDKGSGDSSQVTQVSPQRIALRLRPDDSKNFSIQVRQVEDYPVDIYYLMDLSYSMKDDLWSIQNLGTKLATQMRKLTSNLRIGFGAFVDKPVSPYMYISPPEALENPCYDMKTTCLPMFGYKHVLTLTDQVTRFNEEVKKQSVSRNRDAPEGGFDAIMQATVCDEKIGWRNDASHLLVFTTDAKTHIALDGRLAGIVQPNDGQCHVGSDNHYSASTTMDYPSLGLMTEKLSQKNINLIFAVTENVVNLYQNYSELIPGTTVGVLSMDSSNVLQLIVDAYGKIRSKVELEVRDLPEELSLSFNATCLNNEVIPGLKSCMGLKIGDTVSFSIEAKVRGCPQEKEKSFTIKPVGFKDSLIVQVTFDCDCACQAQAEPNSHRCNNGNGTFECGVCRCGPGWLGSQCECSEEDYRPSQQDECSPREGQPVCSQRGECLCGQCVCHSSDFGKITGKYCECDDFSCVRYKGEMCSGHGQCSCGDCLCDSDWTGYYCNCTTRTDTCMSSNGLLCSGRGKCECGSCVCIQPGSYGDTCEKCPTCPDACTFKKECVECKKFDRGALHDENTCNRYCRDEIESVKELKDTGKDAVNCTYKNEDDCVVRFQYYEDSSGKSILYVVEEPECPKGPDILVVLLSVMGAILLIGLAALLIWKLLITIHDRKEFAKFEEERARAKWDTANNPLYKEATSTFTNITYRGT
T1 sequence (P08514 32-887 limits assumed): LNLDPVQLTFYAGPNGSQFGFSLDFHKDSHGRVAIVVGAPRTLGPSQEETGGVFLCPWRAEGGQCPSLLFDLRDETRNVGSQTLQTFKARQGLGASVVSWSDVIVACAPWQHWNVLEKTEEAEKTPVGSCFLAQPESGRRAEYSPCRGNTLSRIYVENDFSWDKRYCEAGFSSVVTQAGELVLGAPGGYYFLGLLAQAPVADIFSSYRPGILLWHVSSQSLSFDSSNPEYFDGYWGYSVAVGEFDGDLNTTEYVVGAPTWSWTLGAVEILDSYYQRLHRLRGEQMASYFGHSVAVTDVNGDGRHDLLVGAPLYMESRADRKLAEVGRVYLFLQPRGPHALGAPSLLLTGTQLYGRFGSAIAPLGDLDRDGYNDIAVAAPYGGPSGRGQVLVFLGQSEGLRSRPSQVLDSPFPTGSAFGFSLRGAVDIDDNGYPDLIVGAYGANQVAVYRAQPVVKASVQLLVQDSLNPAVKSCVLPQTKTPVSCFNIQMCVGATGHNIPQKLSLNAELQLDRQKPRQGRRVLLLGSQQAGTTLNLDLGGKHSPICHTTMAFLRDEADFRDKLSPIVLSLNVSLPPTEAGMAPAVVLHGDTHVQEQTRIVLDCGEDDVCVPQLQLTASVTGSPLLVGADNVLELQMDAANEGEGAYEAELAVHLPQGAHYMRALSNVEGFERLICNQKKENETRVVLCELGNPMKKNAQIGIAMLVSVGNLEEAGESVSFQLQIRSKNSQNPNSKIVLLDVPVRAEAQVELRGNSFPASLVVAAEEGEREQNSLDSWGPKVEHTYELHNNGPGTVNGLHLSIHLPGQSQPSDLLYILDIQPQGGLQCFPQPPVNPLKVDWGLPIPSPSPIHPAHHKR
T1 sequence (P08514 891-1039 limits assumed): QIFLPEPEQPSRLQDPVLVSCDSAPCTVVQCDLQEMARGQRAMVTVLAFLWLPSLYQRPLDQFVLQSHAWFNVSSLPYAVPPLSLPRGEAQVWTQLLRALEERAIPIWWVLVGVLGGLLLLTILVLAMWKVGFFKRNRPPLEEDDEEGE

Row | IC50 [1] [nM] | IC50 [2] [nM] | IC50 [3] [nM] | Structure (SMILES)
1 | 860 | – | – | O=C(O)CC(NC(=O)CCC(=O)Nc1ccc2c(c1)CNC2)c1ccccc1 (centres undefined)
2 | – | 96 | 0.9 | Cc1ccc(C(CC(=O)O)NC(=O)CCC(=O)Nc2ccc3c(c2)CNCC3)cc1 (centres undefined)
3 | – | 310 | 3.5 | COc1ccc(C(CC(=O)O)NC(=O)CCC(=O)Nc2ccc3c(c2)CNCC3)cc1 (centres undefined)
4 | – | 87 | – | CC(C)Oc1ccc(C(CC(=O)O)NC(=O)CCC(=O)Nc2ccc3c(c2)CNCC3)cc1 (centres undefined)
5 | – | 64 | 0.63 | COc1ccc(C(CC(=O)O)NC(=O)CCC(=O)Nc2ccc3c(c2)CNCC3)cc1OC (centres undefined)
6 | – | 510 | – | CCOc1ccc(C(CC(=O)O)NC(=O)CCC(=O)Nc2ccc3c(c2)CNCC3)cc1OC (centres undefined)
7 | – | 90 | 0.4 | O=C(O)CC(NC(=O)CCC(=O)Nc1ccc2c(c1)CNCC2)c1ccc2c(c1)OCO2 (centres undefined)
8 | – | 5200 | – | O=C(O)CC(NC(=O)CCC(=O)Nc1ccc2c(c1)CNCC2)c1cccc2ccccc12 (centres undefined)
9 | – | 4200 | 18 | COc1ccc(C(CC(=O)O)NC(=O)CCCC(=O)Nc2ccc3c(c2)CNCC3)cc1 (centres undefined)
10 | – | 127 | 5 | COc1ccc(C(CC(=O)O)NC(=O)CCCC(=O)Nc2ccc3c(c2)CNCC3)cc1OC (centres undefined)
11 | – | 53 | 0.78 | O=C(O)CC(NC(=O)CCCC(=O)Nc1ccc2c(c1)CNCC2)c1ccc2c(c1)OCO2 (centres undefined)
12 | – | 160 | 2.6 | COc1ccc(C(CC(=O)O)NC(=O)CCC(=O)Nc2ccc3c(c2)CNC3)cc1 (centres undefined)
13 | – | 105 | 6 | CC(C)Oc1ccc(C(CC(=O)O)NC(=O)CCC(=O)Nc2ccc3c(c2)CNC3)cc1 (centres undefined)
14 | – | 890 | 9 | COc1ccc(C(CC(=O)O)NC(=O)CCC(=O)Nc2ccc3c(c2)CNC3)cc1OC (centres undefined)
15 | – | 31 | 0.22 | O=C(O)CC(NC(=O)CCC(=O)Nc1ccc2c(c1)CNC2)c1ccc2c(c1)OCO2 (centres undefined)
16 | – | 30 | 1.21 | O=C(O)CCNC(=O)CCC(=O)Nc1ccc2c(c1)CNCC2
17 | – | 13 | 1.01 | O=C(O)CC(NC(=O)CCC(=O)Nc1ccc2c(c1)CNCC2)c1ccccc1 (centres undefined)
18 | – | 8.9 | 1 | O=C(O)CC(NC(=O)CCC(=O)Nc1ccc2c(c1)CNCC2)c1ccc(F)cc1 (centres undefined)
19 | – | 10000 | 1100 | O=C(O)CC(NC(=O)CCC(=O)Nc1ccc2c(c1)CNCC2)c1cccc(F)c1 (centres undefined)
20 | – | 570 | 5 | O=C(O)CC(NC(=O)CCC(=O)Nc1ccc2c(c1)CNCC2)c1ccccc1F (centres undefined)
21 | – | 2000 | 65 | O=C(O)CC(NC(=O)CCC(=O)Nc1ccc2c(c1)CNCC2)c1ccc(Cl)cc1 (centres undefined)
22 | – | 17 | 0.8 | COc1ccc(C(CC(=O)O)NC(=O)c2cccc(C(=O)Nc3ccc4c(c3)CNCC4)c2)cc1 (centres undefined)
23 | – | 25 | 1 | O=C(O)CC(NC(=O)c1cccc(C(=O)Nc2ccc3c(c2)CNCC3)c1)c1ccccc1 (centres undefined)
24 | – | 11.6 | 0.7 | COc1ccc(C(CC(=O)O)NC(=O)c2cccc(C(=O)Nc3ccc4c(c3)CNCC4)c2)cc1OC (centres undefined)
